Source: patent US12378249B2, “Isoquinoline compounds and uses thereof” (Genentech, Inc., priority 2018, dated 2025)

molecular target: HPK1 (Homo sapiens (Human), UniProt Q92918, S171E/T165E); test: HPK1-FL HTRF Enzymatic Assay (HTRF); type: biochemical; conditions: HPK full length T165E S171E 0.125 nM, ATP 1 mM, Biotin-SLP76 100 nM, read-out: HPK1 Ki (nM), H = HTRF
Outline: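 Ki derived from % activity calculated from the TR-FRET 665/620 ratio, using Eu-anti-pSLP76 and SA-XL665 detection added for 60 min. Reaction: compound preincubated 30 min with full-length double-mutant HPK1, then 60 min with Biotin-SLP-76 and 1 mM ATP, pH 7.5 HEPES buffer.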

Chain of HPK1 (Q92918 whole entry T165E/S171E): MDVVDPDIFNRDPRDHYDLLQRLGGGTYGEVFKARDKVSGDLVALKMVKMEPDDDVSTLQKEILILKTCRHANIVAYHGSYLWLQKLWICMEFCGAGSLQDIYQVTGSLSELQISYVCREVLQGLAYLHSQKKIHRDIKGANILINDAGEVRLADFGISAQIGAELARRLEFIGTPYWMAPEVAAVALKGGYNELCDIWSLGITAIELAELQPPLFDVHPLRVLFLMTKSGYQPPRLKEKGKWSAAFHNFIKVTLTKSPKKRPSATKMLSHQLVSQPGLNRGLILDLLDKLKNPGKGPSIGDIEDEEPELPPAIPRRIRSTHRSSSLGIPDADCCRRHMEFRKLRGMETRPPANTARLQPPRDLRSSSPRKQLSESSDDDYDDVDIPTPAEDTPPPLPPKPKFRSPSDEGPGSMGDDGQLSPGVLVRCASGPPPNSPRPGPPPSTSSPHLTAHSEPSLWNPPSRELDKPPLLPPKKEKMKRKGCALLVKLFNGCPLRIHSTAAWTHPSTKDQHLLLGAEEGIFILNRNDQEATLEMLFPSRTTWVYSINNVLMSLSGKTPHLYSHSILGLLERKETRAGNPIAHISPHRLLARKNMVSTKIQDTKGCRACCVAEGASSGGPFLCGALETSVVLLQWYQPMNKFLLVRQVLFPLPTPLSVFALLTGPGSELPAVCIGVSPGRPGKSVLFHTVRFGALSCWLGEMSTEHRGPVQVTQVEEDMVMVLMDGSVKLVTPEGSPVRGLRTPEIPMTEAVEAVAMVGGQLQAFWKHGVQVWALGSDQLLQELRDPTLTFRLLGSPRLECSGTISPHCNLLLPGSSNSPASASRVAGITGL

Row | Ki [nM] | Compound
1 | 0.062 | Cc1c(N)cncc1-c1cc2cc(Nc3cc4n(n3)CC(=O)NCC4)ncc2cc1F [Compound 144, 2-((6-(5-amino-4-methylpyridin-3-yl)-7-fluoroisoquinolin-3-yl)amino)-5,6-dihydro-4H-pyrazolo[1,5-d][1,4]diazepin-7(8H)-one]
2 | 1.78 | CC(=O)Nc1cncc(-c2cc3cc(Nc4cc5n(n4)CC(=O)N(C)CC5)ncc3cc2F)c1C [Compound 171, N-(5-(7-fluoro-3-((6-methyl-7-oxo-5,6,7,8-tetrahydro-4H-pyrazolo[1,5-d][1,4]diazepin-2-yl)amino)isoquinolin-6-yl)-4-methylpyridin-3-yl)acetamide]
3 | 0.013 | Cc1c(N)cncc1-c1cc2cc(Nc3cc4n(n3)Cc3ncc(C)n3CC4)ncc2cc1F [Compound 163, N-(6-(5-amino-4-methylpyridin-3-yl)-7-fluoroisoquinolin-3-yl)-3-methyl-5,6-dihydro-11H-imidazo[1,2-a]pyrazolo[1,5-d][1,4]diazepin-8-amine]
4 | 0.028 | Cc1c(N)cncc1-c1cc2cc(Nc3cc4n(n3)CC(=O)N(CCN3CCOCC3)CC4)ncc2cc1F [Compound 136, 2-((6-(5-amino-4-methylpyridin-3-yl)-7-fluoroisoquinolin-3-yl)amino)-6-(2-morpholinoethyl)-5,6-dihydro-4H-pyrazolo[1,5-d][1,4]diazepin-7(8H)-one]
5 | 0.03 | Cc1c(N)cncc1-c1cc2cc(Nc3cc4n(n3)Cc3nccn3CC4)ncc2cc1F [Compound 125, N-(6-(5-amino-4-methylpyridin-3-yl)-7-fluoroisoquinolin-3-yl)-5,6-dihydro-11H-imidazo[1,2-a]pyrazolo[1,5-d][1,4]diazepin-8-amine]
6 | 0.014 | Cc1c(N)cncc1-c1cc2cc(Nc3cc4n(n3)CC(=O)N([C@@H](C)C#N)CC4)ncc2cc1F (single isomer, unassigned) [Compound 154a]
7 | 19 | Cc1c(CN)cncc1-c1cc2cc(Nc3cc4n(n3)CC(=O)N(C)CC4)ncc2cc1F [Compound 211, 2-((6-(5-(aminomethyl)-4-methylpyridin-3-yl)-7-fluoroisoquinolin-3-yl)amino)-6-methyl-5,6-dihydro-4H-pyrazolo[1,5-d][1,4]diazepin-7(8H)-one]
8 | 0.265 | Cc1c(-c2cc3cc(Nc4cc5n(n4)CC(=O)N(C)CC5)ncc3cc2F)cnc2c1NCC(C)(C)[C@@H]2O (single isomer, unassigned) [Compound 241b]
9 | 0.46 | Cc1c(NS(C)(=O)=O)cncc1-c1cc2cc(Nc3cc4n(n3)CC(=O)N(C)CC4)ncc2cc1F [Compound 172, N-(5-(7-fluoro-3-((6-methyl-7-oxo-5,6,7,8-tetrahydro-4H-pyrazolo[1,5-d][1,4]diazepin-2-yl)amino)isoquinolin-6-yl)-4-methylpyridin-3-yl)methanesulfonamide]
10 | 0.04 | Cc1c(N)cncc1-c1cc2cc(Nc3cc4n(n3)CC(=O)N(C)C(C)(C)C4)ncc2cc1F [Compound 120, 2-((6-(5-amino-4-methylpyridin-3-yl)-7-fluoroisoquinolin-3-yl)amino)-5,5,6-trimethyl-5,6-dihydro-4H-pyrazolo[1,5-d][1,4]diazepin-7(8H)-one]

Continued, molecule first:

Row | Compound | Ki [nM]
11 | Cc1c(-c2cc3cc(Nc4cc5n(n4)Cc4nccn4CC5)ncc3cc2F)cnc2c1NCC[S+]2[O-] (racemic) [Compound 189, (+/−)-7-(3-((5,6-dihydro-11H-imidazo[1,2-a]pyrazolo[1,5-d][1,4]diazepin-8-yl)amino)-7-fluoroisoquinolin-6-yl)-8-methyl-2,3-dihydro-1H-pyrido[2,3-b][1,4]thiazine 4-oxide] | 0.48
12 | Cc1c(-c2cc3cc(Nc4cc5n(n4)CC(=O)N(C)CC5)ncc3cc2F)cnc2c1NS(=O)(=O)CO2 [Compound 193, 2-((7-fluoro-6-(8-methyl-2,2-dioxido-1H,3H-pyrido[3,2-e][1,3,4]oxathiazin-7-yl)isoquinolin-3-yl)amino)-6-methyl-5,6-dihydro-4H-pyrazolo[1,5-d][1,4]diazepin-7(8H)-one] | 23
13 | Cc1c(-c2cc3cc(Nc4cc5n(n4)CC(=O)N(CCN4CCOCC4)CC5)ncc3cc2F)cnc2c1NCCO2 [Compound 132, 2-[[7-fluoro-6-(8-methyl-2,3-dihydro-1H-pyrido[2,3-b][1,4]oxazin-7-yl)-3-isoquinolyl]amino]-6-(2-morpholinoethyl)-5,8-dihydro-4H-pyrazolo[1,5-d][1,4]diazepin-7-one] | 0.02
14 | Cc1c(-c2cc3cc(Nc4cc5n(n4)CC(=O)NCC5)ncc3cc2F)cnc2c1NC(C)CO2 (racemic) [Compound 182, (+/−)-2-((6-(2,8-dimethyl-2,3-dihydro-1H-pyrido[2,3-b][1,4]oxazin-7-yl)-7-fluoroisoquinolin-3-yl)amino)-5,6-dihydro-4H-pyrazolo[1,5-d][1,4]diazepin-7(8H)-one] | 0.073
15 | Cc1c(-c2cc3cc(Nc4cc5n(n4)CC(=O)N(C)CC5)ncc3cc2F)cnc2c1[C@@H](F)CCO2 (single isomer, unassigned) [Compound 235a] | 2.1
16 | Cc1c(N)cncc1-c1cc(F)c2cnc(Nc3cc4n(n3)CC(=O)NCC43CC3)cc2c1 [Compound 225, 2′-((6-(5-amino-4-methylpyridin-3-yl)-8-fluoroisoquinolin-3-yl)amino)-5′,6′-dihydrospiro[cyclopropane-1,4′-pyrazolo[1,5-d][1,4]diazepin]-7′(8′H)-one] | 0.013
17 | CC(C)N1CCc2cc(Nc3cc4cc(C(=O)N5CCN(C)CC5)c(F)cc4cn3)nn2CC1=O [Compound 124, 2-((7-fluoro-6-(4-methylpiperazine-1-carbonyl)isoquinolin-3-yl)amino)-6-isopropyl-5,6-dihydro-4H-pyrazolo[1,5-d][1,4]diazepin-7(8H)-one] | 63
18 | Cc1c(-c2cc3cc(Nc4cc5n(n4)CC(=O)N(C)CC5)ncc3cc2F)cnc2c1C(O)CCO2 (single isomer, unassigned) [Compound 180b, 2-((7-Fluoro-6-(4-hydroxy-5-methyl-3,4-dihydro-2H-pyrano[2,3-b]pyridine-6-yl)isoquinolin-3-yl)amino)-6-methyl-5,6-dihydro-4H-pyrazolo[1,5-d][1,4]diazepin-7(8H)-one] | 4.82
19 | Cc1c(-c2cc3cc(Nc4cc5n(n4)CC(=O)N(C)CC5)ncc3cc2F)cnc2c1NCCC2(F)F [Compound 208, 2-((6-(8,8-difluoro-4-methyl-5,6,7,8-tetrahydro-1,5-naphthyridin-3-yl)-7-fluoroisoquinolin-3-yl)amino)-6-methyl-5,6-dihydro-4H-pyrazolo[1,5-d][1,4]diazepin-7(8H)-one] | 0.02
20 | Cc1c(-c2cc3cc(Nc4cc5n(n4)CC(=O)N(C)CC5)ncc3cc2F)cnc2c1NCC[C@H]2O (single isomer, unassigned) [Compound 236b] | 0.062
21 | Cc1c(-c2cc3cc(Nc4ccn([C@H](C)C#N)n4)ncc3cc2F)cnc2c1NCCO2 (single isomer, unassigned) [Compound 109a, 2-(3-((7-fluoro-6-(8-methyl-2,3-dihydro-1H-pyrido[2,3-b][1,4]oxazin-7-yl)isoquinolin-3-yl)amino)-1H-pyrazol-1-yl)propanenitrile] | 2.17
22 | Cc1c(-c2cc3cc(Nc4cc5n(n4)CC(=O)N(C)CC5)ncc3cc2F)cnc2c1C(O)CCO2 (single isomer, unassigned) [Compound 180a, 2-((7-Fluoro-6-(4-hydroxy-5-methyl-3,4-dihydro-2H-pyrano[2,3-b]pyridine-6-yl)isoquinolin-3-yl)amino)-6-methyl-5,6-dihydro-4H-pyrazolo[1,5-d][1,4]diazepin-7(8H)-one] | 0.05
23 | Cc1c(-c2cc3cc(Nc4cc5n(n4)CC(=O)N(C(C)C#N)CC5)ncc3cc2F)cnc2c1NCCO2 (single isomer, unassigned) [Compound 147b] | 0.013
24 | Cc1ncc(-c2cc(F)c3cnc(Nc4cc5n(n4)CC(=O)NCC5)cc3c2)c(C)c1N [Compound 233, 2-((6-(5-amino-4,6-dimethylpyridin-3-yl)-8-fluoroisoquinolin-3-yl)amino)-5,6-dihydro-4H-pyrazolo[1,5-d][1,4]diazepin-7(8H)-one] | 0.155
25 | Cc1c(N)cncc1-c1ccc2cnc(Nc3cc4n(n3)CC(=O)N(C(C)C)CC4)cc2c1 [Compound 129, 2-[[6-(5-amino-4-methyl-3-pyridyl)-3-isoquinolyl]amino]-6-isopropyl-5,8-dihydro-4H-pyrazolo[1,5-d][1,4]diazepin-7-one] | 0.04
26 | Cc1c(-c2cc3cc(Nc4cc5n(n4)CC(=O)NCC5)ncc3cc2F)cnc2c1NCCC2 [Compound 192, 2-((7-fluoro-6-(4-methyl-5,6,7,8-tetrahydro-1,5-naphthyridin-3-yl)isoquinolin-3-yl)amino)-5,6-dihydro-4H-pyrazolo[1,5-d][1,4]diazepin-7(8H)-one] | 0.018
27 | Cc1c(-c2cc3cc(Nc4cc5n(n4)CC(=O)N(C)CC5)ncc3cc2F)cnc2c1NCC[C@@H]2O (single isomer, unassigned) [Compound 236a] | 0.076
28 | CNCc1cc(C)c(-c2ccc3cnc(Nc4cc5n(n4)CC(=O)N(C)CC5)cc3c2)c(F)c1 [Compound 222, 2-((6-(2-fluoro-6-methyl-4-((methylamino)methyl)phenyl)isoquinolin-3-yl)amino)-6-methyl-5,6-dihydro-4H-pyrazolo[1,5-d][1,4]diazepin-7(8H)-one] | 5.2
29 | Cc1c(-c2cc3cc(Nc4cc5n(n4)Cc4nccn4CC5)ncc3cc2F)cnc2c1NCCCO2 [Compound 183, N-(7-fluoro-6-(9-methyl-1,2,3,4-tetrahydropyrido[2,3-b][1,4]oxazepin-8-yl)isoquinolin-3-yl)-5,6-dihydro-11H-imidazo[1,2-a]pyrazolo[1,5-d][1,4]diazepin-8-amine] | 0.013
30 | Cc1c(-c2cc3cc(Nc4cc5n(n4)CC(=O)NCC5)ncc3cc2F)cnc2c1NCCO2 [Compound 160, 2-((7-fluoro-6-(8-methyl-2,3-dihydro-1H-pyrido[2,3-b][1,4]oxazin-7-yl)isoquinolin-3-yl)amino)-5,6-dihydro-4H-pyrazolo[1,5-d][1,4]diazepin-7(8H)-one] | 0.013
